{
  "source": "patent US10342836B2",
  "about": "“Composition having a function for alleviating premenstrual syndrome and menstrual pain” (AMOREPACIFIC CORPORATION, priority 2013, dated 2019)",
  "tested_on": "women of child-bearing ages",
  "test": "Evaluation of improvement in premenstrual syndrome and menstrual pain by questionnaire before and after about 4 weeks of oral tablets",
  "format": "in vivo, human",
  "source_text": "The American Psychiatric Association presents the following diagnosis standard for premenstrual syndrome.\nAccording to the standard, women who satisfy at least 5 of the following 11 items and at least one of the first 4 items were selected for test.\n(1) Quick change in emotion; sudden sadness, anger or rage\n(2) Persistent severe anger and uneasiness\n(3) Uneasiness and tension\n(4) Depression and hopelessness\n(5) Disinterest in daily lives\n(6) Fatigue or low energy\n(10) Difficulty in emotion control\n(11) Breast tenderness, headache, edema, muscle or joint pain and weight gain\nFor the test, 350 mg tablets containing 100 wt % of the ginseng fruit extract of\nA table top tablet making machine (Erweka, Germany) was used.\n40 women were selected from 48 women of child-bearing ages (in their 20s to 50s) according to the diagnosis standard. They were divided into 4 groups: i.e., unadministered group, red ginseng group, ginsenoside Re group, and ginseng fruit group. Each group was composed of 10 subjects.\nThe red ginseng group was asked to take the red ginseng-containing tablets for 4 weeks, twice a day, two tablets once. That is to say, 1400 mg/day of red ginseng extract was administered to them.\nThe ginsenoside Re group was asked to take tablets containing ginsenoside Re as an active ingredient twice a day, two tablets once. […] The content of ginsenoside Re was determined based on the analysis result shown in FIG. 1 for comparison of the effect of improving premenstrual syndrome and menstrual pain of ginseng fruit extract and only ginsenoside Re contained therein.\nThe ginseng fruit group was asked to take the ginseng fruit extract-containing tablets for 4 weeks, twice a day, two tablets once. That is to say, 1400 mg/day of ginseng fruit extract was administered to them.\nThe 40 women were asked to answer questionnaires first after menstruation and, after the administration of nothing, the red ginseng extract or the ginseng fruit extract, to answer questionnaires after the next menstruation was over (about 4 weeks later). The improvement in the symptoms of premenstrual syndrome was evaluated by monitoring the change in total scores based on the questionnaires. One point was given for each item.",
  "key": {"[1]": {"conditions": "group total, n = 10 women, about 4 weeks, 1400 mg/day extract or 240 mg/day ginsenoside Re"}, "[2]": {"conditions": "n = 10 per group, about 4 weeks, 1400 mg/day extract or 240 mg/day ginsenoside Re"}},
  "data": [
    {"compound": "CC(C)=CCC[C@](C)(O[C@@H]1O[C@H](CO)[C@@H](O)[C@H](O)[C@H]1O)[C@H]1CC[C@]2(C)[C@@H]1[C@H](O)C[C@@H]1[C@@]3(C)CC[C@H](O)C(C)(C)[C@@H]3[C@@H](O[C@@H]3O[C@H](CO)[C@@H](O)[C@H](O)[C@H]3O[C@@H]3O[C@@H](C)[C@H](O)[C@@H](O)[C@H]3O)C[C@]12C", "note": "[Ginsenoside Re, ginsenoside Re]", "values": [
      {"measurement": "Total score, difference (before minus after administration)", "setting": "[1]", "result": 9},
      {"measurement": "Total score, difference in percent of the score before administration", "setting": "[1]", "result": 12, "unit": "%"},
      {"measurement": "Total score (premenstrual syndrome questionnaire), after administration", "setting": "group total, n = 10 women, after next menstruation (about 4 weeks), tablets twice a day, two tablets once: 1400 mg/day extract or 240 mg/day ginsenoside Re", "result": 66},
      {"measurement": "Total score (premenstrual syndrome questionnaire), before administration", "setting": "group total, n = 10 women, one point per item (11 items), questionnaire after menstruation, before administration", "result": 75},
      {"measurement": "Number of women who felt the symptoms, difference (before minus after)", "setting": "[2]", "result": 2},
      {"measurement": "Number of women who felt the symptoms, difference in percent", "setting": "[2]", "result": 20, "unit": "%"},
      {"measurement": "Number of women who felt the symptoms of premenstrual syndrome, after administration", "setting": "n = 10 per group, after about 4 weeks, 1400 mg/day extract or 240 mg/day ginsenoside Re", "result": 8},
      {"measurement": "Number of women who felt the symptoms of premenstrual syndrome, before administration", "setting": "n = 10 per group, before administration", "result": 10}
    ]}
  ]
}
